{"source": "paper PMC9653409", "about": "“Generative deep learning enables the discovery of a potent and selective RIPK1 inhibitor” (Nature Communications, 2022)", "experiment_in_all_cases": "Kinase inhibitory activity profiling of RI-962@10 µM (406 kinases, Eurofins)", "assay_type_in_all_cases": "biochemical", "key": {"[1]": {"molecular_target": "panel of human kinases (kinase named in endpoint) (Homo sapiens, UniProt P09769)", "conditions": "10 µM; read-out: Activity (%), Fgr(h)", "method_in_brief": "(§1)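 Radiometric filter-binding kinase assays: enzyme preincubated 15 min with compound in 8 mM MOPS pH 7.0, 0.2 mM EDTA, 250 μM peptide substrate, 10 mM magnesium acetate, 10 μM [γ-33P]-ATP. Reaction started with Mg/ATP, run 40 min at room temperature, stopped with phosphoric acid; 33P incorporation read by scintillation counting. Other kinases by similar protocols.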"}, "[2]": {"molecular_target": "panel of human kinases (kinase named in endpoint) (Homo sapiens, UniProt P48736)", "sequence (P48736 whole entry)": "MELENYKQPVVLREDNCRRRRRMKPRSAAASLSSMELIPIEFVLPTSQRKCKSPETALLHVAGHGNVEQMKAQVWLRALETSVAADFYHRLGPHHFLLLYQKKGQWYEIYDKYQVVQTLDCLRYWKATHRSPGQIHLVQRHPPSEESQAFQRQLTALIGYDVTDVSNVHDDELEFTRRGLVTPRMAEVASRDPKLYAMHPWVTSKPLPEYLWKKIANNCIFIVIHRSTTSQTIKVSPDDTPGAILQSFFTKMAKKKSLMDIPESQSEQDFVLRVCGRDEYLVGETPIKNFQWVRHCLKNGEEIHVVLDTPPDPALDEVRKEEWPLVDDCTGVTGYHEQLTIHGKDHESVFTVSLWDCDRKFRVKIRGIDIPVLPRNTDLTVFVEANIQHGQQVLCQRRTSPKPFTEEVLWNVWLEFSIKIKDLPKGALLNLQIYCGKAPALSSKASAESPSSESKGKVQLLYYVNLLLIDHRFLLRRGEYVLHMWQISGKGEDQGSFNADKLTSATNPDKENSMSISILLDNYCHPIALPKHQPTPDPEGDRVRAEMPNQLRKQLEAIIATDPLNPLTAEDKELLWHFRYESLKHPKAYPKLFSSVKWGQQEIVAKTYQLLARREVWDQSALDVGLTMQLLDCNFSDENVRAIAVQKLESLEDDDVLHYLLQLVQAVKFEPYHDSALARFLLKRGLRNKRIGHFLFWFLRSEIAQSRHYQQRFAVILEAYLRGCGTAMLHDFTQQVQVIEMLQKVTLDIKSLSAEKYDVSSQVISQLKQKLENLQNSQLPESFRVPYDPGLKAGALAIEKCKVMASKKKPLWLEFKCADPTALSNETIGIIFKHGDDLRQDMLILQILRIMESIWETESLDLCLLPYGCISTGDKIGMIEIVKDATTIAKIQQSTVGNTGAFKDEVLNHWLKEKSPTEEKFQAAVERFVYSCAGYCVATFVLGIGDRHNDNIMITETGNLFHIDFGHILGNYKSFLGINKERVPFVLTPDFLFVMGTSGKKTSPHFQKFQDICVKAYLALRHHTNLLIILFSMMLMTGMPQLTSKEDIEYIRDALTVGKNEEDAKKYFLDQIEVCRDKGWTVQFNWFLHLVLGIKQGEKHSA", "conditions": "10 µM; read-out: Activity (%), PI3 Kinase (p120g)(h)", "method_in_brief": "as §1"}, "[3]": {"molecular_target": "panel of human kinases (kinase named in endpoint) (Homo sapiens, UniProt O95819)", "conditions": "10 µM; read-out: Activity (%), MAP4K4(h)", "method_in_brief": "as §1"}, "[4]": {"molecular_target": "panel of human kinases (kinase named in endpoint) (Homo sapiens, UniProt P07949)", "conditions": "10 µM; read-out: Activity (%), Ret(h)", "method_in_brief": "as §1"}, "[5]": {"molecular_target": "panel of human kinases (kinase named in endpoint) (Homo sapiens, UniProt P00519)", "conditions": "10 µM; read-out: Activity (%), Abl(h)", "method_in_brief": "as §1"}, "[6]": {"molecular_target": "panel of human kinases (kinase named in endpoint) (Homo sapiens, UniProt Q9BQI3)", "conditions": "10 µM; read-out: Activity (%), HRI(h)", "method_in_brief": "as §1"}, "[7]": {"molecular_target": "panel of human kinases (kinase named in endpoint) (Homo sapiens, UniProt Q96GD4)", "conditions": "10 µM; read-out: Activity (%), Aurora-B(h)", "method_in_brief": "as §1"}, "[8]": {"molecular_target": "panel of human kinases (kinase named in endpoint) (Homo sapiens, UniProt Q8N5S9)", "sequence (Q8N5S9 whole entry)": "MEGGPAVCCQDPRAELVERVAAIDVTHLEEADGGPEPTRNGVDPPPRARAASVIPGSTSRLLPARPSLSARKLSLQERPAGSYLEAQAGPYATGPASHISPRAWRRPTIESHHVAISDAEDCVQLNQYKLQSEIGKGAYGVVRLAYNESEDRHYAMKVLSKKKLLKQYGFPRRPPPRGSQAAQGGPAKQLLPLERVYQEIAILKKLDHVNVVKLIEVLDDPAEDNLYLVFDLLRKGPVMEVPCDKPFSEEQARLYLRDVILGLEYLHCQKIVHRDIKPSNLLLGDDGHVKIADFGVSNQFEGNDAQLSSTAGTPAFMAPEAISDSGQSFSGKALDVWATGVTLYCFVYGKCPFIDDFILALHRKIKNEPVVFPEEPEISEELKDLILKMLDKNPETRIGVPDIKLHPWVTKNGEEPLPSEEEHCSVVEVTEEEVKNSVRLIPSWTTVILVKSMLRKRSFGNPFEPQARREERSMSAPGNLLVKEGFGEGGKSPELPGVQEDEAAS", "conditions": "10 µM; read-out: Activity (%), CaMKK1(h)", "method_in_brief": "as §1"}, "[9]": {"molecular_target": "panel of human kinases (kinase named in endpoint) (Homo sapiens, UniProt Q9H3Y6)", "sequence (Q9H3Y6 whole entry)": "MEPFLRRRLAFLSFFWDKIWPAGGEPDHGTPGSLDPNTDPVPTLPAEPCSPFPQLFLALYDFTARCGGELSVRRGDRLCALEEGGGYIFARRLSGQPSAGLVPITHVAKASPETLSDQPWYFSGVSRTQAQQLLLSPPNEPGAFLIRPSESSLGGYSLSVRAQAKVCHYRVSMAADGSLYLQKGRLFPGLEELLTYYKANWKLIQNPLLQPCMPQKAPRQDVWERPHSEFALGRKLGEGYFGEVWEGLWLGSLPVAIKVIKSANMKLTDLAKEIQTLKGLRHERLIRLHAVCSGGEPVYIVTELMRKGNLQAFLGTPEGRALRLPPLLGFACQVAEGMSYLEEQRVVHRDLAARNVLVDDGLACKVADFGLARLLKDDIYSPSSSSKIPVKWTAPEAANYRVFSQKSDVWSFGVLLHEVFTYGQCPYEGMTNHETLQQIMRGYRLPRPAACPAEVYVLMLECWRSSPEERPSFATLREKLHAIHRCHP", "conditions": "10 µM; read-out: Activity (%), SRMS(h)", "method_in_brief": "as §1"}, "[10]": {"tested_on": "panel of human kinases (kinase named in endpoint)", "conditions": "10 µM", "method_in_brief": "as §1"}, "[11]": {"molecular_target": "panel of human kinases (kinase named in endpoint) (Homo sapiens, UniProt Q00537)", "sequence (Q00537 whole entry)": "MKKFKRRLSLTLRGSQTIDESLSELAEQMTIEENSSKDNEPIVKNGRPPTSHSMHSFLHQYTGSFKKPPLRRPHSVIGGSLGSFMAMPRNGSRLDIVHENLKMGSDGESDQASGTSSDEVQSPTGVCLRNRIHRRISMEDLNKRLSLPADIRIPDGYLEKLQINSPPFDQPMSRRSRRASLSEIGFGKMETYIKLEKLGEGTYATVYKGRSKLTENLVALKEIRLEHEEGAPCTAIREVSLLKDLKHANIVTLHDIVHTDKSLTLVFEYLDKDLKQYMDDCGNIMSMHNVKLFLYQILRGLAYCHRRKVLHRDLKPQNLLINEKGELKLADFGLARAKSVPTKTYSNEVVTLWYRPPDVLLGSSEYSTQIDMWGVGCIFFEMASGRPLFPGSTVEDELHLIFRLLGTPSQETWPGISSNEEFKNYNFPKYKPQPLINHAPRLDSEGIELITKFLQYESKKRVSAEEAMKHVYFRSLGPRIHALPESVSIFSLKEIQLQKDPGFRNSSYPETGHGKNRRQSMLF", "conditions": "10 µM; read-out: Activity (%), CDK17/cyclinY(h)", "method_in_brief": "as §1"}, "[12]": {"molecular_target": "panel of human kinases (kinase named in endpoint) (Homo sapiens, UniProt P00519, H396P)", "conditions": "10 µM; read-out: Activity (%), Abl (H396P) (h)", "method_in_brief": "as §1"}, "[13]": {"molecular_target": "panel of human kinases (kinase named in endpoint) (Homo sapiens, UniProt P31749)", "conditions": "10 µM; read-out: Activity (%), PKBα(h)", "method_in_brief": "as §1"}, "[14]": {"molecular_target": "panel of human kinases (kinase named in endpoint) (Homo sapiens, UniProt Q9BYP7)", "conditions": "10 µM; read-out: Activity (%), WNK3(h)", "method_in_brief": "as §1"}, "[15]": {"molecular_target": "panel of human kinases (kinase named in endpoint) (Homo sapiens, UniProt P54760)", "conditions": "10 µM; read-out: Activity (%), EphB4(h)", "method_in_brief": "as §1"}, "[16]": {"molecular_target": "panel of human kinases (kinase named in endpoint) (Homo sapiens, UniProt P78527)", "conditions": "10 µM; read-out: Activity (%), DNA-PK(h)", "method_in_brief": "as §1"}, "[17]": {"molecular_target": "panel of human kinases (kinase named in endpoint) (Homo sapiens, UniProt Q16513)", "conditions": "10 µM; read-out: Activity (%), PRK2(h)", "method_in_brief": "as §1"}, "[18]": {"molecular_target": "panel of human kinases (kinase named in endpoint) (Homo sapiens, UniProt P17612)", "conditions": "10 µM; read-out: Activity (%), PKA(h)", "method_in_brief": "as §1"}, "[19]": {"molecular_target": "panel of human kinases (kinase named in endpoint) (Homo sapiens, UniProt Q8IVH8)", "conditions": "10 µM; read-out: Activity (%), MAP4K3(h)", "method_in_brief": "as §1"}, "[20]": {"molecular_target": "panel of human kinases (kinase named in endpoint) (Homo sapiens, UniProt Q9HBH9)", "sequence (Q9HBH9 whole entry)": "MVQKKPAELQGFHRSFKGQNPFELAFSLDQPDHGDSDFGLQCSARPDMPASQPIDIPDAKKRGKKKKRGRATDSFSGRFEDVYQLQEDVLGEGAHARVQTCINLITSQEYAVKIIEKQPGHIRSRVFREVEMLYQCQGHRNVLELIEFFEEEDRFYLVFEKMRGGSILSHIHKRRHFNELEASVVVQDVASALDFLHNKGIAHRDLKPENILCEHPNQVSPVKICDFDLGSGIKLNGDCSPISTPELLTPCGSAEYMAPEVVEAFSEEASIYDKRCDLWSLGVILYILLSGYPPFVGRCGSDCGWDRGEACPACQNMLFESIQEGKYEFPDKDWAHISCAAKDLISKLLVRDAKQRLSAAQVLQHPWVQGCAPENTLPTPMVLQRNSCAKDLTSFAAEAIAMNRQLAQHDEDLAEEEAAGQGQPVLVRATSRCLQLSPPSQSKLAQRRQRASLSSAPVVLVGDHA", "conditions": "10 µM; read-out: Activity (%), Mnk2(h)", "method_in_brief": "as §1"}, "[21]": {"molecular_target": "panel of human kinases (kinase named in endpoint) (Homo sapiens, UniProt P28482)", "conditions": "10 µM; read-out: Activity (%), MAPK2(h)", "method_in_brief": "as §1"}, "[22]": {"molecular_target": "panel of human kinases (kinase named in endpoint) (Homo sapiens, UniProt P42684)", "sequence (P42684 whole entry)": "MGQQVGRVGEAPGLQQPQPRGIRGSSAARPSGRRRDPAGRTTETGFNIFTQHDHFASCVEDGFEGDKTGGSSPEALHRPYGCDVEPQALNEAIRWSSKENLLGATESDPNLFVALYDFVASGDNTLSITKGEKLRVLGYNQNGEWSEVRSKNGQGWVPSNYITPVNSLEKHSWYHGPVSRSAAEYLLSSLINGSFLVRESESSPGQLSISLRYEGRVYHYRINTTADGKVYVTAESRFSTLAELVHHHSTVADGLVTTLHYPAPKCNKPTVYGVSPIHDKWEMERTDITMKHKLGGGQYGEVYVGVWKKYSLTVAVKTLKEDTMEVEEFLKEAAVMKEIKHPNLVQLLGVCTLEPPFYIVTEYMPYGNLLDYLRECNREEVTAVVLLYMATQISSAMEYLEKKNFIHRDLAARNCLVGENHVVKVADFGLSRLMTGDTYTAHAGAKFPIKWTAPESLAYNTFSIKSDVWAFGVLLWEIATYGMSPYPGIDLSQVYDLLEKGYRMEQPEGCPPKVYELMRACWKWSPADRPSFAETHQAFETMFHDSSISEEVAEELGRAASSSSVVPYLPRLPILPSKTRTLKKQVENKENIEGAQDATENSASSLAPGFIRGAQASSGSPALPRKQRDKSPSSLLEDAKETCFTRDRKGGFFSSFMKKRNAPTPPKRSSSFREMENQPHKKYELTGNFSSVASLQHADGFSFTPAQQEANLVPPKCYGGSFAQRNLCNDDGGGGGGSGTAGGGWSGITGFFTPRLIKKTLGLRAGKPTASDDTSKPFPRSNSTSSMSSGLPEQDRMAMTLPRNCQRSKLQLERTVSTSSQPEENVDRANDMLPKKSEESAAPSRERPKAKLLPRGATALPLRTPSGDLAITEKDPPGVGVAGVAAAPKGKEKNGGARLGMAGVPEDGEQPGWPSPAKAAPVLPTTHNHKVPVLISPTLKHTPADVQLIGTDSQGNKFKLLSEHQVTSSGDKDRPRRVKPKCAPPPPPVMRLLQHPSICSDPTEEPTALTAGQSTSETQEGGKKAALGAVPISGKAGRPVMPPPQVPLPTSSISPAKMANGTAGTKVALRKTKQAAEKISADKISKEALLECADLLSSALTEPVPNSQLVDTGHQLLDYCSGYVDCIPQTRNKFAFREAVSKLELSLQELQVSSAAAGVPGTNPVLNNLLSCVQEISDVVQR", "conditions": "10 µM; read-out: Activity (%), Arg(h)", "method_in_brief": "as §1"}, "[23]": {"molecular_target": "panel of human kinases (kinase named in endpoint) (Homo sapiens, UniProt Q9UKI8)", "sequence (Q9UKI8 whole entry)": "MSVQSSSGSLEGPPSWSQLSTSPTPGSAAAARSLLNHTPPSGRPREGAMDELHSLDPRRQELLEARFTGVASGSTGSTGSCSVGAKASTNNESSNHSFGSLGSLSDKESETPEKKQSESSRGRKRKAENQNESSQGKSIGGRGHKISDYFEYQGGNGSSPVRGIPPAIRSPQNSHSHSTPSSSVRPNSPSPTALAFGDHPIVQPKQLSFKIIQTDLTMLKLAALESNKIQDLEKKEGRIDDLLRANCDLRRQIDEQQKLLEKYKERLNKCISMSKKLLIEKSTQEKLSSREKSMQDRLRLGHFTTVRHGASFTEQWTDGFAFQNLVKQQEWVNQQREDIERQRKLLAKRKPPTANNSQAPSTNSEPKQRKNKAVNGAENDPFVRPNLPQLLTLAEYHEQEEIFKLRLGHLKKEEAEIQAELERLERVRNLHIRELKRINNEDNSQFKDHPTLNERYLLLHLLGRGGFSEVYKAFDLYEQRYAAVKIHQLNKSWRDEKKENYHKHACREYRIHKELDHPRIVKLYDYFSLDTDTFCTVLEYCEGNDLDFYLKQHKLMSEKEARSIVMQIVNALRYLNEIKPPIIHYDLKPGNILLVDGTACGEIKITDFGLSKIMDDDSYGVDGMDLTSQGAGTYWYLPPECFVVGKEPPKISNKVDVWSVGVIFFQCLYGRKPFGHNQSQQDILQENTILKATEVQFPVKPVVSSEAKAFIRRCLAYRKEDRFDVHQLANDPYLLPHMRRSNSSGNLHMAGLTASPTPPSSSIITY", "conditions": "10 µM; read-out: Activity (%), TLK1(h)", "method_in_brief": "as §1"}, "[24]": {"molecular_target": "panel of human kinases (kinase named in endpoint) (Homo sapiens, UniProt P07333)", "conditions": "10 µM; read-out: Activity (%), Fms(h)", "method_in_brief": "as §1"}, "[25]": {"molecular_target": "panel of human kinases (kinase named in endpoint) (Homo sapiens, UniProt P27448)", "conditions": "10 µM; read-out: Activity (%), MARK3(h)", "method_in_brief": "as §1"}}}
{"smiles": "CC(C)C(=O)Nc1nc2cc(-c3ccc4c(c3)c(C(=O)NC(C)c3ccccc3)cn4C)ccn2n1", "note": "(centres unmarked) [RI-962]", "values": [{"measurement": "activity at 10 µM", "setting": "[1]", "result": 96, "unit": "%"}, {"measurement": "activity at 10 µM", "setting": "[2]", "result": 80, "unit": "%"}, {"measurement": "activity at 10 µM", "setting": "[3]", "result": 88, "unit": "%"}, {"measurement": "activity at 10 µM", "setting": "[4]", "result": 114, "unit": "%"}, {"measurement": "activity at 10 µM", "setting": "[5]", "result": 85, "unit": "%"}, {"measurement": "activity at 10 µM", "setting": "[6]", "result": 99, "unit": "%"}, {"measurement": "activity at 10 µM", "setting": "[7]", "result": 119, "unit": "%"}, {"measurement": "activity at 10 µM", "setting": "[8]", "result": 56, "unit": "%"}, {"measurement": "activity at 10 µM", "setting": "[9]", "result": 101, "unit": "%"}, {"measurement": "Activity (%), ACTR2(h)", "setting": "[10]", "result": 81, "unit": "%"}, {"measurement": "Activity (%), CK1(y)", "setting": "[10]", "result": 100, "unit": "%"}, {"measurement": "Activity (%), MAPK1(h)", "setting": "[10]", "result": 94, "unit": "%"}, {"measurement": "Activity (%), PKCβII(h)", "setting": "[10]", "result": 87, "unit": "%"}, {"measurement": "Activity (%), PKG1β(h)", "setting": "[10]", "result": 98, "unit": "%"}, {"measurement": "activity at 10 µM", "setting": "[11]", "result": 124, "unit": "%"}, {"measurement": "activity at 10 µM", "setting": "[12]", "result": 110, "unit": "%"}, {"measurement": "activity at 10 µM", "setting": "[13]", "result": 80, "unit": "%"}, {"measurement": "activity at 10 µM", "setting": "[14]", "result": 75, "unit": "%"}, {"measurement": "activity at 10 µM", "setting": "[15]", "result": 90, "unit": "%"}, {"measurement": "activity at 10 µM", "setting": "[16]", "result": 100, "unit": "%"}, {"measurement": "activity at 10 µM", "setting": "[17]", "result": 101, "unit": "%"}, {"measurement": "activity at 10 µM", "setting": "[18]", "result": 97, "unit": "%"}, {"measurement": "activity at 10 µM", "setting": "[19]", "result": 85, "unit": "%"}, {"measurement": "activity at 10 µM", "setting": "[20]", "result": 92, "unit": "%"}, {"measurement": "activity at 10 µM", "setting": "[21]", "result": 90, "unit": "%"}, {"measurement": "activity at 10 µM", "setting": "[22]", "result": 106, "unit": "%"}, {"measurement": "activity at 10 µM", "setting": "[23]", "result": 69, "unit": "%"}, {"measurement": "activity at 10 µM", "setting": "[24]", "result": 111, "unit": "%"}, {"measurement": "activity at 10 µM", "setting": "[25]", "result": 84, "unit": "%"}]}
